Source: EP4813403A1, “USE OF GLP-1R/GIPR DOUBLE-TARGET AGONIST IN PREPARING ANIMAL DRUG” (Hangzhou Zhongmeihuadong Pharmaceutical Co., Ltd., priority 2023, dated 2025)

Legend:
human GIP Receptor = biological target: T1, human GIP Receptor (Homo sapiens, UniProt P48546); assay: In vitro binding activity to human GIP receptor ([125I]GIP displacement, crude cell membranes); conditions: ratio of the Ki value of the endogenous ligand to the Ki value of the test compound; larger ratio = stronger binding
T1 construct: expressed in transfected cells
T1 sequence (P48546 22-466): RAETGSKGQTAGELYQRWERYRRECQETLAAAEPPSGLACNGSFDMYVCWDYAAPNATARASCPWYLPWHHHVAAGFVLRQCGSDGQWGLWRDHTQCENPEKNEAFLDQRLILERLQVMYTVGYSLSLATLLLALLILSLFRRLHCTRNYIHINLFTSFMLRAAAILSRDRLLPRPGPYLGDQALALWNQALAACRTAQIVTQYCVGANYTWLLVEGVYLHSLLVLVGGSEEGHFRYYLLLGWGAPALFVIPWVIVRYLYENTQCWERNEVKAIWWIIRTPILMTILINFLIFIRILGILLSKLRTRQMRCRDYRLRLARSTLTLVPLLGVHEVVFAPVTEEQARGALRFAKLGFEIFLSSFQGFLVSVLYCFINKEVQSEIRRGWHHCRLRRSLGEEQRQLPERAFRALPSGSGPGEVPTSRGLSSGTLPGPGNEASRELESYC
Procedure: (§1) 89 µL of membrane dissolved in binding buffer (50 mM Hepes, pH 7.4, 5 mM MgCl2 , 5 mM EDTA, 0.005% TWEEN, 0.005% HSA) was transferred to a 96-well test plate (5 µg/well). The compound was serially diluted in DMSO, and then, 1 µL of the diluted compound or 100% DMSO was added to the test plate containing the membrane solution. 10 µL of [^125I] […] The test plate was left at room temperature for 90 minutes. The membrane complexes were harvested into a GF/B plate pre-coated with 0.5% PEI by using a Cell Harvester, and washed for 3 times with 500 µL of pre-cooled elution buffer (50 mM Hepes, pH 7.4, 500 mM NaCl) at 4°C. After drying at 37°C for 2 hours, 50 µL of scintillation fluid was added to each well. The plate was read with a MicroBeta2 scintillation counter after sealing and settling for at least 1 hour so as to determine the membrane bound radioligand level.
hGIP and the compound of the present invention were dissolved in DMSO and stored at -80°C. 98 µL of membrane dissolved in binding buffer (50 mM HEPES pH 7.4, 5 mM MgCl2, 1 mM CaCl2, 0.1% BSA, 0.005% Tween-20) was transferred to a 96-well test plate (15 µg/well). The compound was serially diluted in DMSO, and then, 2 µL of the diluted compounds or 100% DMSO was added to the test plate containing the membrane solution. […] The test plate was left at room temperature for 90 minutes. The membrane complexes were harvested into a GF/B plate pre-coated with 0.5% PEI by using a Cell Harvester, and washed for 3 times with 500 µL of pre-cooled elution buffer (50 mM Tris-HCl pH 7.4, 125 mM NaCl) at 4°C. After drying at 37°C for 2 hours, 50 µL of scintillation fluid was added to each well. The plate was read with a MicroBeta2 scintillation counter after sealing and settling for at least 1 hour so as to determine the membrane bound radioligand level.
The IC50 concentration was converted to Ki (Ki was the inhibition constant) using the Cheng-Prusoff equation. Table 1. Receptor Binding Affinity, Ki Ratio

[1] = Pharmacokinetics following single administration in SD rats; conditions: male, Sprague-Dawley, rat, in vivo, sc
Procedure: The compound was administrated to male SD rats (230-268 g, n=3) at a dose of 50.0 nmol/kg (s.c.) or 25.0 nmol/kg (i.v.). […] 30.0 μL of thawed plasma sample was taken. 150 μL of acetonitrile solution (containing 5 ng·mL^-1 Verapamil , 50 ng·mL^-1 Glibenclamide, 200 ng·mL^-1 Tolbutamide and 200 ng·mL^-1 Diclofenac) were added to precipitate protein. The mixture was vortexed for 5 minutes, and centrifuged at 3700 rpm for 8 minutes. 70.0 μL of the supernatant was taken, into which 70.0 μL of 0.5% aqueous formic acid solution was added. The mixture was vortexed for 5 minutes. 15 μL of the mixture solution was sampled and injected into the LC-MS/MS to determine the drug concentration in plasma. 20.0 μL of thawed plasma sample was taken. 60 μL of acetonitrile solution (containing 5 ng·mL^-1 Verapamil, 50 ng·mL^-1 Glibenclamide, 200 ng·mL^-1 Tolbutamide and 200 ng·mL^-1 Diclofenac) were added to precipitate protein. […] The mixture was vortexed for 10 minutes. 10.0 μL of the mixture solution was sampled and injected into the LC-MS/MS to determine the drug concentration in plasma. 30.0 μL of thawed plasma sample was taken. 150 μL of acetonitrile solution (containing 5 ng·mL^-1 Verapamil, 50 ng·mL^-1 Glibenclamide, 200 ng·mL^-1 Tolbutamide and 200 ng·mL^-1 Diclofenac) were added to precipitate protein. The mixture was vortexed for 5 minutes, and centrifuged at 3700 rpm for 8 minutes. 70.0 μL of the supernatant was taken, into which 70.0 μL of 0.5% aqueous formic acid solution was added. The mixture was vortexed for 5 minutes. 10.0 μL of the mixture solution was sampled and injected into the LC-MS/MS to determine the drug concentration in plasma. […] Table 5 Pharmacokinetic Parameters after Subcutaneous Injection of Different Polypeptide Compounds to Rats

db/db mice = assay: Pharmacodynamic effects in db/db mice, single subcutaneous administration (blood glucose); assay type: in vivo; conditions: single s.c. 10 nmol/kg
Procedure: In this study, 8-9 week old male db/db mice were used. The db/db mice were placed in an individual ventilated cage (IVC) facility with a controlled temperature (20-26°C) and humidity (40-70%) and a controlled 12h:12 h light-dark cycle. The mice can receive food and water ad libitum. Blood was sampled at the tail tip, and the random base blood glucose was measured by a Roche blood glucose meter. The mice were randomly divided into groups according to the random initial fasting blood glucose and initial body weight (n=6/group), and each group had similar body weight and blood glucose.
After a single subcutaneous administration, the random base blood glucoses were recorded at the set time point (0 to 120 hours, the recording of the random base blood glucose was stopped until there was no difference between the random base blood glucose of the compound and that of the vehicle group), and the daily body weight and food intake were also recorded. The data results were statistically analyzed using GraphPad Prism8, and the statistical differences among the groups were analyzed following a T-Test. Significant differences were identified at p<0.05.
Hypoglycemic Duration: the longest time during which the random base blood glucose of the compound has a significant difference (p<0.05) vs. the vehicle group. Table 13. Hypoglycemic Duration of the Compounds

human GLP-1R = human GLP-1R (Homo sapiens, UniProt P43220); assay: In vitro binding activity to human GLP-1 receptor ([125I]GLP-1 displacement, crude cell membranes); set-up: expressed in transfected cells; conditions: ratio of the Ki value of the endogenous ligand to the Ki value of the test compound; larger ratio = stronger binding
Chain of human GLP-1R (P43220 24-463): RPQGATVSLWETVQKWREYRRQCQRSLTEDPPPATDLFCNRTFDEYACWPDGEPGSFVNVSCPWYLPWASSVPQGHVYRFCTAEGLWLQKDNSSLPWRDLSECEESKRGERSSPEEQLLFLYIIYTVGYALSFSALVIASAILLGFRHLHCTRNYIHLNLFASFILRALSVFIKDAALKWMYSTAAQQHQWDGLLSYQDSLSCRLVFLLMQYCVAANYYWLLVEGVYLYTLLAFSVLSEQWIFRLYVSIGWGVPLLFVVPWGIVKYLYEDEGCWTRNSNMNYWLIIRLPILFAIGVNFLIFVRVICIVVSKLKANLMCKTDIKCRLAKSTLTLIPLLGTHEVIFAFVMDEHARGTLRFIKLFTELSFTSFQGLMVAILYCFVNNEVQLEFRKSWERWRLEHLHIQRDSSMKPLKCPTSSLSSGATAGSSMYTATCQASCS
Procedure: as §1
The IC50 concentration was converted to Ki (Ki was the inhibition constant) using the Cheng-Prusoff equation.

[2] = Group 2, longest time with p<0.05 vs. vehicle
[3] = Group 1, longest time with p<0.05 vs. vehicle

Row | Compound | GIPR Ki ratio (human GIP Receptor) | Tmax [1] | half-life [1] | Hypoglycemic Duration (db/db mice; [2]) | GLP-1R Ki ratio (human GLP-1R) | Hypoglycemic Duration (db/db mice; [3]) | hypoglycemic duration longer than that of Tirzepatide (db/db mice) | inhibition of the blood glucose AUC, times of that of P001 (db/db mice)
1 | CC[C@H](C)[C@H](NC(=O)C(C)(C)NC(=O)[C@H](Cc1ccc(O)cc1)NC(=O)[C@H](CC(=O)O)NC(=O)[C@H](CO)NC(=O)[C@@H](NC(=O)C(C)(Cc1ccccc1)NC(=O)[C@@H](NC(=O)CNC(=O)[C@H](CCC(=O)O)NC(=O)C(C)(C)NC(=O)[C@@H](N)Cc1ccc(O)cc1)[C@@H](C)O)[C@@H](C)O)C(=O)NC(C)(C)C(=O)N[C@@H](CC(C)C)C(=O)N[C@@H](CC(=O)O)C(=O)N[C@@H](CCCCN)C(=O)N[C@@H](CCC(N)=O)C(=O)N[C@@H](C)C(=O)N[C@@H](CCC(N)=O)C(=O)N[C@@H](C)C(=O)N[C@@H](CCC(=O)O)C(=O)N[C@@H](Cc1ccccc1)C(=O)N[C@H](C(=O)N[C@@H](CCCCN)C(=O)N[C@@H](Cc1c[nH]c2ccccc12)C(=O)N[C@@H](CC(C)C)C(=O)N[C@@H](CC(C)C)C(=O)N[C@@H](CCCCNC(=O)COCCOCCNC(=O)COCCOCCNC(=O)CC[C@H](NC(=O)CC[C@H](NC(=O)CC[C@H](NC(=O)CCCCCCCCCCCCCCCCC(=O)O)C(=O)O)C(=O)O)C(=O)O)C(=O)NCC(=O)NCC(=O)N1CCC[C@H]1C(=O)N[C@@H](CO)C(=O)N[C@@H](CO)C(=O)NCC(=O)N[C@@H](C)C(=O)N1CCC[C@H]1C(=O)N1CCC[C@H]1C(=O)N1CCC[C@H]1C(=O)N[C@@H](CO)C(=O)N[C@@H](CCCCN)C(N)=O)C(C)C (stereo partly drawn) [Compound P018] | 0.05 | 24 h | 18.3 ± 6.77 h | 48 h | 1.45 | – | – | –
2 | CC[C@H](C)[C@H](NC(=O)C(C)(C)NC(=O)[C@H](Cc1ccc(O)cc1)NC(=O)[C@H](CC(=O)O)NC(=O)[C@H](CO)NC(=O)[C@@H](NC(=O)C(C)(Cc1ccccc1)NC(=O)[C@@H](NC(=O)CNC(=O)[C@H](CCC(=O)O)NC(=O)C(C)(C)NC(=O)[C@@H](N)Cc1ccc(O)cc1)[C@@H](C)O)[C@@H](C)O)C(=O)NC(C)(C)C(=O)N[C@@H](CC(C)C)C(=O)N[C@@H](CC(=O)O)C(=O)N[C@@H](CCCCN)C(=O)N[C@@H](CCC(N)=O)C(=O)N[C@@H](C)C(=O)N[C@@H](CCC(N)=O)C(=O)N[C@@H](C)C(=O)N[C@@H](CCC(=O)O)C(=O)N[C@@H](Cc1ccccc1)C(=O)N[C@H](C(=O)N[C@@H](CCCCNC(=O)COCCOCCNC(=O)COCCOCCNC(=O)CC[C@H](NC(=O)CCCCCCCCCCCCCCCCC(=O)O)C(=O)O)C(=O)N[C@@H](Cc1c[nH]c2ccccc12)C(=O)N[C@@H](CC(C)C)C(=O)N[C@@H](CC(C)C)C(=O)N[C@@H](CCCCN)C(=O)NCC(=O)NCC(=O)N1CCC[C@H]1C(=O)N[C@@H](CO)C(=O)N[C@@H](CO)C(=O)NCC(=O)N[C@@H](C)C(=O)N1CCC[C@H]1C(=O)N1CCC[C@H]1C(=O)N1CCC[C@H]1C(=O)N[C@@H](CO)C(=O)N[C@@H](CCCCN)C(N)=O)C(C)C (stereo partly drawn) [Compound P007] | – | 7.33 ± 1.15 h | 15 ± 2.89 h | – | 0.47 | 56 h | – | –
3 | CC[C@H](C)[C@H](NC(=O)C(C)(C)NC(=O)[C@H](Cc1ccc(O)cc1)NC(=O)[C@H](CC(=O)O)NC(=O)[C@H](CO)NC(=O)[C@@H](NC(=O)C(C)(Cc1ccccc1)NC(=O)[C@@H](NC(=O)CNC(=O)[C@H](CCC(=O)O)NC(=O)C(C)(C)NC(=O)[C@@H](N)Cc1ccc(O)cc1)[C@@H](C)O)[C@@H](C)O)C(=O)NC(C)(C)C(=O)N[C@@H](CC(C)C)C(=O)N[C@@H](CC(=O)O)C(=O)N[C@@H](CCCCN)C(=O)N[C@@H](CCC(N)=O)C(=O)N[C@@H](C)C(=O)N[C@@H](CCC(N)=O)C(=O)N[C@@H](C)C(=O)N[C@@H](CCC(=O)O)C(=O)N[C@@H](Cc1ccccc1)C(=O)N[C@H](C(=O)N[C@@H](CCCCNC(=O)COCCOCCNC(=O)COCCOCCNC(=O)CC[C@H](NC(=O)CC[C@H](NC(=O)CC[C@H](NC(=O)CCCCCCCCCCCCCCCCC(=O)O)C(=O)O)C(=O)O)C(=O)O)C(=O)N[C@@H](Cc1c[nH]c2ccccc12)C(=O)N[C@@H](CC(C)C)C(=O)N[C@@H](CC(C)C)C(=O)N[C@@H](CCCCN)C(=O)NCC(=O)NCC(=O)N1CCC[C@H]1C(=O)N[C@@H](CO)C(=O)N[C@@H](CO)C(=O)NCC(=O)N[C@@H](C)C(=O)N1CCC[C@H]1C(=O)N1CCC[C@H]1C(=O)N1CCC[C@H]1C(=O)N[C@@H](CO)C(=O)N[C@@H](CCCCN)C(N)=O)C(C)C (stereo partly drawn) [Compound P015] | – | 24 h | 16.1 ± 1.21 h | 32 h | 0.17 | – | – | –
4 | CC[C@H](C)[C@H](NC(=O)C(C)(C)NC(=O)[C@H](Cc1ccc(O)cc1)NC(=O)[C@H](CC(=O)O)NC(=O)[C@H](CO)NC(=O)[C@@H](NC(=O)C(C)(Cc1ccccc1)NC(=O)[C@@H](NC(=O)CNC(=O)[C@H](CCC(=O)O)NC(=O)C(C)(C)NC(=O)[C@@H](N)Cc1ccc(O)cc1)[C@@H](C)O)[C@@H](C)O)C(=O)NC(C)(C)C(=O)N[C@@H](CC(C)C)C(=O)N[C@@H](CC(=O)O)C(=O)N[C@@H](CCCCN)C(=O)N[C@@H](CCC(N)=O)C(=O)N[C@@H](C)C(=O)N[C@@H](CCC(N)=O)C(=O)N[C@@H](C)C(=O)N[C@@H](CCC(=O)O)C(=O)N[C@@H](Cc1ccccc1)C(=O)N[C@H](C(=O)N[C@@H](CCCCN)C(=O)N[C@@H](Cc1c[nH]c2ccccc12)C(=O)N[C@@H](CC(C)C)C(=O)N[C@@H](CC(C)C)C(=O)N[C@@H](CCCCNC(=O)COCCOCCNC(=O)COCCOCCNC(=O)CC[C@H](NC(=O)CCCCCCCCCCCCCCCCC(=O)O)C(=O)O)C(=O)NCC(=O)NCC(=O)N1CCC[C@H]1C(=O)N[C@@H](CO)C(=O)N[C@@H](CO)C(=O)NCC(=O)N[C@@H](C)C(=O)N1CCC[C@H]1C(=O)N1CCC[C@H]1C(=O)N1CCC[C@H]1C(=O)N[C@@H](CO)C(=O)N[C@@H](CCCCN)C(N)=O)C(C)C (stereo partly drawn) [Compound P008] | – | 13.3 ± 9.24 h | 18.7 ± 4.82 h | – | – | 72 h | more than 16 hours | 2.3 times
